Data reported in ChEMBL document CHEMBL6083262, “Stereorandomized Oncocins with Preserved Ribosome Binding and Antibacterial Activity” (J Med Chem, 2024).
Values after ≈ are worked out from the molar mass of the structure shown. Active and inactive are the calls of the source. The calls are words filed in the database; no cut-off is given here. Non-standard residues stand in square brackets, D forms with d. Residues, ends and D or L forms follow the SMILES beside them. ξ: configuration not given here. ξY = NC(Cc1ccc(O)cc1)C(=O)O; ξR = N=C(N)NCCCC(N)C(=O)O; ξN = NC(=O)CC(N)C(=O)O; ξI = CCC(C)C(N)C(=O)O; ξP = O=C(O)C1CCCN1

Experiments:
Pseudomonas aeruginosa [1] = experiment: Antibacterial activity against multidrug-resistant Pseudomonas aeruginosa PA14 2P4 harboring pmrB mutant incubated for 16 to 20 hrs in full muller hinton medium by broth microdilution method; format: functional; details: time 16-20 hrs
rRNA = experiment: Binding affinity to [gamma32 P-ATP] labeled Escherichia coli MG1655 23S ribosomal RNA (5-CCCTTGGGACCTACTTC-3') at U2506 position assessed as increase in band intensity at 1 uM incubated for 2.5 hrs in full muller hinton medium by CMCT based gel electrophoresis; format: nucleic-acid assay
Staphylococcus aureus [2] = experiment: Antimicrobial activity against methicillin-resistant Staphylococcus aureus COL incubated for 16 to 20 hrs in full muller hinton medium by broth microdilution method; format: functional; details: time 16-20 hrs
Klebsiella pneumoniae [3] = experiment: Bacteriostatic activity against Klebsiella pneumoniae assessed as small intracellular vesicles at 8 times MIC in full muller hinton medium by transmission electron microscopic analysis; format: functional, organism-based
Escherichia coli [4] = experiment: Bacteriostatic activity against Escherichia coli at 8 times MIC in full muller hinton medium by Time-kill assay; format: functional, organism-based
Escherichia coli [5] = experiment: Bacteriostatic activity against Escherichia coli assessed as small intracellular vesicles at 8 times MIC in full muller hinton medium by transmission electron microscopic analysis; format: functional, organism-based
Enterobacter cloacae [6] = experiment: Antibacterial activity against multidrug-resistant Enterobacter cloacae incubated for 16 to 20 hrs in 12.5 % muller hinton medium by broth microdilution method; format: functional; details: time 16-20 hrs
Escherichia coli [7] = experiment: Bacteriostatic activity against Escherichia coli assessed as detachment of inner membrane from outer membrane by measuring a large void at 8 times MIC in full muller hinton medium by transmission electron microscopic analysis; format: functional, organism-based
Klebsiella pneumoniae [8] = experiment: Bacteriostatic activity against Klebsiella pneumoniae assessed as detachment of inner membrane from outer membrane by measuring a large void at 8 times MIC in full muller hinton medium by transmission electron microscopic analysis; format: functional, organism-based
Pseudomonas aeruginosa [9] = experiment: Antibacterial activity against multidrug-resistant Pseudomonas aeruginosa PA14 incubated for 16 to 20 hrs in full muller hinton medium by broth microdilution method; format: functional; details: time 16-20 hrs
Lipid bilayer [10] = experiment: Induction of membrane disruption in egg yolk phosphatidyl glycerol at 10 ug/ml by measuring vesicle leakage; details: dose 10.0 µg/ml
Klebsiella pneumoniae [11] = experiment: Bacteriostatic activity against Klebsiella pneumoniae assessed as membrane perturbation at 8 times MIC in full muller hinton medium by transmission electron microscopic analysis; format: functional, organism-based
Pseudomonas aeruginosa [12] = experiment: Antibacterial activity against multidrug-resistant Pseudomonas aeruginosa clinical isolate ZEM9A incubated for 16 to 20 hrs in full muller hinton medium by broth microdilution method; format: functional; details: time 16-20 hrs
[13] = Hemolytic activity in human RBC incubated for 4 hrs; format: toxicity, cell-based; details: erythrocyte
Klebsiella pneumoniae [14] = experiment: Bacteriostatic activity against Klebsiella pneumoniae at 8 times MIC in full muller hinton medium by Time-kill assay; format: functional, organism-based
Lipid bilayer [15] = experiment: Induction of membrane disruption in egg yolk phosphatidyl choline at 10 ug/ml by measuring vesicle leakage; details: dose 10.0 µg/ml
Staphylococcus aureus [16] = experiment: Antimicrobial activity against methicillin-resistant Staphylococcus aureus COL incubated for 16 to 20 hrs in 12.5 % muller hinton medium by broth microdilution method; format: functional; details: time 16-20 hrs
Escherichia coli [17] = experiment: Bacteriostatic activity against Escherichia coli assessed as membrane perturbation at 8 times MIC in full muller hinton medium by transmission electron microscopic analysis; format: functional, organism-based
Enterobacter cloacae [18] = experiment: Antibacterial activity against multidrug-resistant Enterobacter cloacae incubated for 16 to 20 hrs in full muller hinton medium by broth microdilution method; format: functional; details: time 16-20 hrs
Klebsiella pneumoniae [19] = experiment: Antimicrobial activity against Klebsiella pneumoniae NCTC 418 incubated for 16 to 20 hrs in 12.5 % muller hinton medium by broth microdilution method; format: functional; details: time 16-20 hrs
Pseudomonas aeruginosa [20] = experiment: Antimicrobial activity against Pseudomonas aeruginosa PAO1 incubated for 16 to 20 hrs in full muller hinton medium by broth microdilution method; format: functional; details: time 16-20 hrs
Pseudomonas aeruginosa [21] = experiment: Antibacterial activity against multidrug-resistant Pseudomonas aeruginosa clinical isolate ZEM9A incubated for 16 to 20 hrs in 12.5 % muller hinton medium by broth microdilution method; format: functional; details: time 16-20 hrs
Pseudomonas aeruginosa [22] = experiment: Antimicrobial activity against Pseudomonas aeruginosa PAO1 incubated for 16 to 20 hrs in 12.5 % muller hinton medium by broth microdilution method; format: functional; details: time 16-20 hrs
Acinetobacter baumannii [23] = experiment: Antimicrobial activity against Acinetobacter baumannii ATCC 19606 incubated for 16 to 20 hrs in full muller hinton medium by broth microdilution method; format: functional; details: time 16-20 hrs
Klebsiella pneumoniae [24] = experiment: Antibacterial activity against multidrug-resistant Klebsiella pneumoniae clinical isolate OXA-48 incubated for 16 to 20 hrs in full muller hinton medium by broth microdilution method; format: functional; details: time 16-20 hrs
Pseudomonas aeruginosa [25] = experiment: Antibacterial activity against multidrug-resistant Pseudomonas aeruginosa PA14 4.18 harboring pmrB mutant incubated for 16 to 20 hrs in 12.5 % muller hinton medium by broth microdilution method; format: functional; details: time 16-20 hrs
Pseudomonas aeruginosa [26] = experiment: Antibacterial activity against multidrug-resistant Pseudomonas aeruginosa PA14 4.13 harboring phoQ mutant incubated for 16 to 20 hrs in 12.5 % muller hinton medium by broth microdilution method; format: functional; details: time 16-20 hrs
Pseudomonas aeruginosa [27] = experiment: Antibacterial activity against multidrug-resistant Pseudomonas aeruginosa clinical isolate ZEM-1A incubated for 16 to 20 hrs in 12.5 % muller hinton medium by broth microdilution method; format: functional; details: time 16-20 hrs
Klebsiella pneumoniae [28] = experiment: Antibacterial activity against multidrug-resistant Klebsiella pneumoniae clinical isolate OXA-48 incubated for 16 to 20 hrs in 12.5 % muller hinton medium by broth microdilution method; format: functional; details: time 16-20 hrs
Pseudomonas aeruginosa [29] = experiment: Antibacterial activity against multidrug-resistant Pseudomonas aeruginosa PA14 4.13 harboring phoQ mutant incubated for 16 to 20 hrs in full muller hinton medium by broth microdilution method; format: functional; details: time 16-20 hrs
Acinetobacter baumannii [30] = experiment: Antimicrobial activity against Acinetobacter baumannii ATCC 19606 incubated for 16 to 20 hrs in 12.5 % muller hinton medium by broth microdilution method; format: functional; details: time 16-20 hrs
Escherichia coli [31] = experiment: Antimicrobial activity against Escherichia coli W3110 incubated for 16 to 20 hrs in full muller hinton medium by broth microdilution method; format: functional; details: time 16-20 hrs
Pseudomonas aeruginosa [32] = experiment: Antibacterial activity against multidrug-resistant Pseudomonas aeruginosa PA14 4.18 harboring pmrB mutant incubated for 16 to 20 hrs in full muller hinton medium by broth microdilution method; format: functional; details: time 16-20 hrs
Pseudomonas aeruginosa [33] = experiment: Antibacterial activity against multidrug-resistant Pseudomonas aeruginosa PA14 incubated for 16 to 20 hrs in 12.5 % muller hinton medium by broth microdilution method; format: functional; details: time 16-20 hrs
Pseudomonas aeruginosa [34] = experiment: Antibacterial activity against multidrug-resistant Pseudomonas aeruginosa clinical isolate ZEM-1A incubated for 16 to 20 hrs in full muller hinton medium by broth microdilution method; format: functional; details: time 16-20 hrs
Klebsiella pneumoniae [35] = experiment: Antimicrobial activity against Klebsiella pneumoniae NCTC 418 incubated for 16 to 20 hrs in full muller hinton medium by broth microdilution method; format: functional; details: time 16-20 hrs

CCC(C)C(NC(=O)C(CCCNC(=N)N)NC(=O)C(CCCNC(=N)N)NC(=O)C1CCCN1C(=O)C1CCCN1C(=O)[C@H](CCCNC(=N)N)NC(=O)[C@@H]1CCCN1C(=O)[C@H](CCCNC(=N)N)NC(=O)[C@@H]1CCCN1C(=O)[C@H](CC(C)C)NC(=O)[C@H](Cc1ccc(O)cc1)NC(=O)[C@@H]1CCCN1C(=O)[C@@H]1CCCN1C(=O)[C@H](CCCCN)NC(=O)[C@H](CC(=O)O)NC(=O)[C@@H](N)C(C)C)C(=O)NC(Cc1ccc(O)cc1)C(=O)NC(CC(N)=O)C(=O)NC(CCCNC(=N)N)C(N)=O (some centres undefined) (H-VDKPPYLPRPR[ξP][ξP][ξR][ξR][ξI][ξY][ξN][ξR]-NH2)
MIC (Pseudomonas aeruginosa [1]): > 64 µg/mL
Activity (rRNA): Active
MIC (Staphylococcus aureus [2]): > 64 µg/mL
Activity (Klebsiella pneumoniae [3]): Active
Activity (Escherichia coli [4]): Active
Activity (Escherichia coli [5]): Active
MIC (Enterobacter cloacae [6]): 0.5 µg/mL (≈ 0.209 µM)
Activity (Escherichia coli [7]): Active
Activity (Klebsiella pneumoniae [8]): Active
MIC (Pseudomonas aeruginosa [9]): > 64 µg/mL
Activity (Lipid bilayer [10]): Active
Activity (Klebsiella pneumoniae [11]): Active; Few Membrane Perturbation Observed
MIC (Pseudomonas aeruginosa [12]): > 64 µg/mL
MHC [13]: > 1000 µg/mL
Activity (Klebsiella pneumoniae [14]): Active
Activity (Lipid bilayer [15]): Active
MIC (Staphylococcus aureus [16]): > 16 µg/mL
Activity (Escherichia coli [17]): Active; Few Membrane Perturbation Observed
MIC (Enterobacter cloacae [18]): > 64 µg/mL

CC[C@H](C)[C@H](NC(=O)[C@H](CCCNC(=N)N)NC(=O)[C@H](CCCNC(=N)N)NC(=O)[C@@H]1CCCN1C(=O)[C@@H]1CCCN1C(=O)[C@H](CCCNC(=N)N)NC(=O)[C@@H]1CCCN1C(=O)[C@H](CCCNC(=N)N)NC(=O)[C@@H]1CCCN1C(=O)[C@@H](CC(C)C)NC(=O)[C@H](Cc1ccc(O)cc1)NC(=O)[C@@H]1CCCN1C(=O)[C@@H]1CCCN1C(=O)[C@H](CCCCN)NC(=O)[C@H](CC(=O)O)NC(=O)[C@@H](N)C(C)C)C(=O)N[C@@H](Cc1ccc(O)cc1)C(=O)N[C@@H](CC(N)=O)C(=O)N[C@@H](CCCNC(=N)N)C(N)=O (H-VDKPPY[dL]PRPRPPRRIYNR-NH2)
MIC (Pseudomonas aeruginosa [1]): > 64 µg/mL
Activity (rRNA): inactive
MIC (Klebsiella pneumoniae [19]): > 16 µg/mL
MIC (Staphylococcus aureus [2]): > 64 µg/mL
MIC (Pseudomonas aeruginosa [20]): > 64 µg/mL
MIC (Pseudomonas aeruginosa [21]): > 64 µg/mL
MIC (Pseudomonas aeruginosa [22]): > 16 µg/mL
MIC (Acinetobacter baumannii [23]): > 64 µg/mL
MIC (Klebsiella pneumoniae [24]): > 64 µg/mL
MIC (Pseudomonas aeruginosa [25]): > 32 µg/mL
MIC (Pseudomonas aeruginosa [26]): > 32 µg/mL
MIC (Pseudomonas aeruginosa [27]): > 64 µg/mL
MIC (Pseudomonas aeruginosa [9]): > 32 µg/mL
MIC (Klebsiella pneumoniae [28]): > 64 µg/mL
MIC (Pseudomonas aeruginosa [29]): > 32 µg/mL
MIC (Pseudomonas aeruginosa [12]): > 64 µg/mL
MIC (Acinetobacter baumannii [30]): > 16 µg/mL
MIC (Escherichia coli [31]): > 64 µg/mL
MHC [13]: > 1000 µg/mL
MIC (Pseudomonas aeruginosa [32]): > 32 µg/mL
MIC (Pseudomonas aeruginosa [33]): > 32 µg/mL
MIC (Pseudomonas aeruginosa [34]): > 64 µg/mL
MIC (Staphylococcus aureus [16]): > 64 µg/mL
MIC (Klebsiella pneumoniae [35]): > 64 µg/mL
MIC (Enterobacter cloacae [18]): > 64 µg/mL
